Source: patent US8697685B2, “Chemical compounds” (GlaxoSmithKline LLC, priority 2008, dated 2014)

The molecules below were run on AKT phosphorylation at T308 in PC-3 cells (assay: Phospho-AKT (T308) ELISA in PC3 cells). Details: Homo sapiens, 6 hours compound treatment, in at least one experimental run, read-out: IC50 for inhibition of AKT phosphorylation at T308 in PC-3 cells.
Assay type: cell-based
Description: Phospho-AKT (S473, T308, Total AKT) and phospho-RSK ELISA
PC3 cells (ATCC, Manassas, Va.) were plated in 96-well flat bottom plates (Corning, Lowell, Mass.) at a density of 15,000 cells/well in RPMI 1640 medium supplemented with 10% FBS. Cells were incubated at 37° C., 5% CO2 for 18-20 h. Compounds (dissolved in 100% DMSO) were diluted in an 11-point 3-fold dilution in DMSO. Compound dilution stocks were further diluted in RPMI 1640 with 10% FBS and added to each cell well. DMSO without compound was used in control wells. Final concentration of DMSO in each well was 0.15%. After 6 hours at 37° C. cells were washed with cold PBS (without calcium or magnesium) and lysed in lysis buffer (Meso Scale Discovery, Gaithersburg, Md.) supplemented with 1 protease inhibitor tablet/10 ml (Roche, Indianapolis, Ind.), 10 mM NaF, and 200 μl/10 ml Sigma phosphatase inhibitor 1 & 2 (Sigma Aldrich, St Louis, Mo.) for 30 min at 4° C. All washes were performed on a Bio Tek ELx405 plate washer (Bio Tek Instruments, Winooski, Vt.).
ELISA plates (Meso Scale Discovery; AKT Duplex, cat. N41100B-1; phospho AKT, cat. N411CAB-1; RSK, cat. N41ZB-1) were prepared by the addition of blocking buffer (3% Blocker A diluted in wash buffer (Meso Scale Discovery) for AKT duplex assay and phospho AKT assays; 5% Blocker A/1% Blocker B in Tris-buffered saline for RSK) for 1 hour and washed with wash buffer. Lysates were transferred to assay wells and incubated overnight at 4° C. Following washing with wash buffer, detection buffer (1% Blocker A in wash buffer for AKT duplex and phospho AKT or 1% Blocker A in TBS for RSK) with appropriate antibodies was added. Detection of AKT duplex and phospho AKT was carried out using a sulfo-tagged detection antibodies (Meso Scale Discovery). Detection of phospho-RSK was carried out sequentially with anti phospho-RSK1 (S221)/RSK2 (S227) (R&D systems, Minneapolis, Minn., cat. AF892) and goat anti-rabbit sulfo-tag antibody (cat R32AB-1; Meso Scale Discovery). Plates were incubated for 1 hour at room temperature and washed with wash buffer. Plates were read on a SECTOR™ Imager 6000 (Meso Scale Discovery) using Workbench software (Meso Scale Discovery) following addition of read buffer (Meso Scale Discovery) to each well. For analysis, phospho-AKT (S473) signals were normalized to total AKT, while phospho-AKT (T308) and phospho-RSK signals were analyzed without normalization. All values were expressed as percent of the DMSO-treated controls. IC50s were determined from inhibition curves using XLfit4 software (IDBS, Guildford, UK).

| SMILES | IC50 [nM] |
| --- | --- |
| C[C@@H]1CO[C@H](C(=O)Nc2ccccc2)CN1c1cc(-c2ccc3c(N)n[nH]c3c2)nc(N)n1 [Example 67, (2S,5R)-4-[2-Amino-6-(3-amino-1H-indazol-6-yl)-4-pyrimidinyl]-5-methyl-N-phenyl-2-morpholinecarboxamide] | < 1000 |
| CNc1nc(-c2ccc3c(N)n[nH]c3c2)cc(N2C[C@@H](C(=O)NC3CCCCC3)CC[C@H]2C)n1 [Example 78, (3S,6R)-1-[6-(3-Amino-1H-indazol-6-yl)-2-(methylamino)-4-pyrimidinyl]-N-cyclohexyl-6-methyl-3-piperidinecarboxamide] | < 1000 |
| CC1CCC(NC(=O)[C@H]2CC[C@@H](C)N(c3cc(-c4ccc5c(N)n[nH]c5c4)nc(N)n3)C2)CC1 (stereo partly drawn) [Example 150, (3S,6R)-1-[2-Amino-6-(3-amino-1H-indazol-6-yl)-4-pyrimidinyl]-6-methyl-N-(4-methylcyclohexyl)-3-piperidinecarboxamide] | < 1000 |
| CC[C@@H]1CO[C@H](C(=O)NCc2ccccc2)CN1c1cc(-c2ccc3c(N)n[nH]c3c2)nc(NC)n1 [Example 176, (2S,5R)-4-[6-(3-Amino-1H-indazol-6-yl)-2-(methylamino)-4-pyrimidinyl]-5-ethyl-N-(phenylmethyl)-2-morpholinecarboxamide] | < 1000 |
| C[C@@H]1C[C@@H](NC(=O)OC(C)(C)C)CN(c2cc(-c3ccc4c(N)n[nH]c4c3)nc(N)n2)C1 [Example 212, 1,1-Dimethylethyl{(3R,5R)-1-[2-amino-6-(3-amino-1H-indazol-6-yl)-4-pyrimidinyl]-5-methyl-3-piperidinyl}carbamate] | < 1000 |

Second part, the molecule after the results:

| IC50 [nM] | SMILES |
| --- | --- |
| < 1000 | CNc1nc(-c2ccc3c(N)n[nH]c3c2)cc(N2CC(C(=O)NC3CCCCC3)CCC2C(F)(F)F)n1 (stereo not drawn) [Example 49, Cis-1-[6-(3-Amino-1H-indazol-6-yl)-2-(methylamino)-4-pyrimidinyl]-N-cyclohexyl-6-(trifluoromethyl)-3-piperidinecarboxamide] |
| < 1000 | CNc1nc(-c2ccc3c(N)n[nH]c3c2)cc(N2C[C@@H](C(=O)Nc3ccccc3)CC[C@H]2C)n1 [Example 77, (3S,6R)-1-[6-(3-amino-1H-indazol-6-yl)-2-(methylamino)-4-pyrimidinyl]-6-methyl-N-phenyl-3-piperidinecarboxamide] |
| < 1000 | CNc1nc(-c2ccc3cn[nH]c3c2)cc(N2C[C@@H](C(=O)NCc3ccccc3)CC[C@H]2C)n1 [Example 81, (3S,6R)-1-[6-(1H-Indazol-6-yl)-2-(methylamino)-4-pyrimidinyl]-6-methyl-N-(phenylmethyl)-3-piperidinecarboxamide] |
| < 1000 | CNc1nc(-c2cc(F)c3c(N)n[nH]c3c2)cc(N2C[C@@H](C(=O)NCc3ccccc3)CC[C@H]2C)n1 [Example 86, (3S,6R)-1-[6-(3-Amino-4-fluoro-1H-indazol-6-yl)-2-(methylamino)-4-pyrimidinyl]-6-methyl-N-(phenylmethyl)-3-piperidinecarboxamide] |
| < 1000 | C[C@@H]1CC[C@H](C(=O)NC2CCCCC2)CN1c1cc(-c2ccc3c(N)n[nH]c3c2)nc(N)n1 [Example 121, (3S,6R)-1-[2-Amino-6-(3-amino-1H-indazol-6-yl)-4-pyrimidinyl]-N-cyclohexyl-6-methyl-3-piperidinecarboxamide] |
